Source: ChEMBL document CHEMBL1128105, “Synthesis of new azino fused benzimidazolium salts. a new family of DNA intercalating agents. I” (Bioorg Med Chem Lett, 1995)

These compounds were tested on HT-29 (assay: In vitro inhibitory activity against colon carcinoma HT-29 cells after 72 hr using in-house program). Conditions: Homo sapiens, HT-29, 72 h.
Format: functional, cell-based

| Compound | EC50 |
| --- | --- |
| COC(=O)c1ccc(Cn2c3ccccc3[n+]3nc4c(cc23)-c2cccc3cccc-4c23)cc1 | 24 µM |
| CCOC(=O)c1c2c(cc3n(Cc4ccccc4)c4ccccc4[n+]13)-c1cccc3cccc-2c13 | 2.1 µM |
| c1ccc(Cn2c3ccccc3[n+]3nc4c(c(-c5ccccc5)c23)-c2cccc3cccc-4c23)cc1 | 3.7 µM |
| CCOC(=O)Cn1c2ccccc2[n+]2nc3c(cc12)-c1cccc2cccc-3c12 | 54 µM |
| Cn1c2ccccc2[n+]2nc3c(cc12)-c1cccc2cccc-3c12 | 3.7 µM |
| Nn1c2ccccc2[n+]2nc3c(cc12)-c1cccc2cccc-3c12 | 37 µM |
| NCCNC(=O)Cn1c2ccccc2[n+]2nc3c(cc12)-c1cccc2cccc-3c12 | > 100 µM |
| CCOC(=O)Cn1c2ccccc2[n+]2c(C(=O)OCC)c3c(cc12)-c1cccc2cccc-3c12 | 1.8 µM |
| c1ccc(Cn2c3ccccc3[n+]3nc4c(cc23)-c2cccc3cccc-4c23)cc1 | 1.5 µM |
